Test results published in patent US11548860B2, “Pharmacophores, compounds and methods having application in the treatment of cancer through inhibition of CYP17A1 and CYP19A1” (MANGOSUTHU UNIVERSITY OF TECHNOLOGY, priority 2015, dated 2023).

Experiments:
CYP17A1 = CYP17A1 (Homo sapiens (Human), UniProt P05093); assay: CYP17A1 inhibition, CYP17A1 bactosomes, progesterone substrate, LC-MS/MS; assay type: biochemical; settings: for IC50: 0.1 μM progesterone, 20 min, 37° C.
Experimental: CYP17A1 inhibition was measured using 20 pmol/ml CYP17A1 bactosomes (Cypex, Dundee, UK) and 0.1 μM progesterone as a substrate and 1 mM NADPH in 50 mM potassium phosphate buffer pH 7.4 containing 5 mM magnesium chloride. Inhibitors were dissolved in DMSO and serially diluted in seven ½ log steps, final concentrations ranging from 50 μA to 50 nM. Reaction volume was 100 μl and final DMSO concentration was 1% (v/v). Reactions were started by the addition of NADPH and incubated at 37° C. for 20 minutes with shaking at 1800 rpm on a Bioshake IQ (Q-Instruments, Jena, Germany). Reactions were terminated by the addition of 200 μl methanol containing 1 μM tolbutamide as an internal standard.

CYP1A2 = CYP1A2 (Homo sapiens (Human), UniProt P05177); assay: CYP inhibition against major 5 human liver CYPs in E. coli CYPEX membranes: CYP1A2 (tacrine); assay type: in vitro ADME; settings: bactosome mix, 10 min, 37° C.
Experimental: (§1) Test compounds and control inhibitors were prepared as stocks in DMSO from the solid compound. The stocks were diluted in 0.1 M phosphate buffer (pH 7.4) at four times the final concentration prior to addition into the incubation tubes. The final DMSO concentration was 1%. […] Catalogue number CYP/XG001, Batch XG001001). Selective and FDA accepted substrates for each isoform were used at a concentration around the Km for each substrate. Activity of each isoform was assessed by measuring the appearance of an isoform-specific metabolite. A cocktail of 5 isoform-specific inhibitors was used as a positive control. […] Reactions were stopped by addition of 100 μl MeOH/1 μM Tolbutamide (internal standard). The quenched samples were mixed thoroughly and protein precipitated at −20° C. overnight. Samples were centrifuged at 2,500×g (3,400 rpm) for 20 minutes, 4° C. The supernatants were transferred to a 96 well-plate and analysed by LC-MS/MS. […] The LC-MS/MS peak responses (CYP metabolite peak area/internal standard peak area) for each test compound or positive control inhibitor were used and the response for each sample was expressed as a percentage of an uninhibited control (DMSO incubation).

CYP2C9 = CYP2C9 (Homo sapiens (Human), UniProt P11712); assay: CYP inhibition against major 5 human liver CYPs in E. coli CYPEX membranes: CYP2C9 (diclofenac); assay type: in vitro ADME; settings: bactosome mix, 10 min, 37° C.
CYP2C19 = CYP2C19 (Homo sapiens (Human), UniProt P33261); assay: CYP inhibition against major 5 human liver CYPs in E. coli CYPEX membranes: CYP2C19 ((S)-mephenytoin); assay type: in vitro ADME; settings: bactosome mix, 10 min, 37° C.
Experimental: as §1

CYP2D6 = CYP2D6 (Homo sapiens (Human), UniProt P10635); assay: CYP inhibition against major 5 human liver CYPs in E. coli CYPEX membranes: CYP2D6 (bufuralol); assay type: in vitro ADME; settings: bactosome mix, 10 min, 37° C.
Experimental: Test compounds and control inhibitors were prepared as stocks in DMSO from the solid compound. The stocks were diluted in 0.1 M phosphate buffer (pH 7.4) at four times the final concentration prior to addition into the incubation tubes. The final DMSO concentration was 1%. […] Catalogue number CYP/XG001, Batch XG001001). Selective and FDA accepted substrates for each isoform were used at a concentration around the Km for each substrate. Activity of each isoform was assessed by measuring the appearance of an isoform-specific metabolite. A cocktail of 5 isoform-specific inhibitors was used as a positive control. […] Reactions were stopped by addition of 100 μl MeOH/1 μM Tolbutamide (internal standard). The quenched samples were mixed thoroughly and protein precipitated at −20° C. overnight. Samples were centrifuged at 2,500×g (3,400 rpm) for 20 minutes, 4° C. The supernatants were transferred to a 96 well-plate and analysed by LC-MS/MS. The following LC-MS/MS conditions were used to analyse the 5CYP inhibition samples: • Column: Waters ACE Excel C18-AR, 50×2.1 mm, 2 μm • Mobile phase A: MilliQ water+0.1% formic acid • Mobile phase B: Methanol+0.1% formic acid • Flow rate: 0.8 ml/min The CYP activities for each test compound/positive control inhibitor at each concentration were converted to % of control activity (CA). The LC-MS/MS peak responses (CYP metabolite peak area/internal standard peak area) for each test compound or positive control inhibitor were used and the response for each sample was expressed as a percentage of an uninhibited control (DMSO incubation).

CYP3A4 = CYP3A4 (Homo sapiens (Human), UniProt P08684); assay: CYP inhibition against major 5 human liver CYPs in E. coli CYPEX membranes: CYP3A4 (midazolam); assay type: in vitro ADME; settings: bactosome mix, 10 min, 37° C.
Experimental: as §1

Solubility in DMSO = assay type: physicochemical
[1] = Toxicity studies on the molecules in Table 2
[2] = tested on: CYP1A2, CYP2C9, CYP2C19, CYP2D6, and CYP3A4; assay: Summary of inhibition of metabolic CYP450 isoforms (5 CYP panel); assay type: in vitro ADME, human; settings: Table 2
CYP19A1 = CYP19A1 (Homo sapiens (Human), UniProt P11511); assay: CYP19A1 inhibition, CYP19/MFC High Throughput Inhibitor Screen Kit, fluorescence; assay type: biochemical
Experimental: Test compounds and control inhibitors were prepared as stocks in either Acetonitrile or DMSO from the solid compound. Compounds were serially diluted in ½ log steps in the same solvent. CYP19A1 inhibition experiments were performed using the CYP19/MFC High Throughput Inhibitor Screen Kit (Corning). Test compounds were tested in seven concentrations: […] CYP19A1 reactions were performed in black 96 well-plates (Greiner) according to the manufacturer's instructions. […] Final organic solvent concentrations were either 4% (v/v) acetonitrile or 0.5% (v/v) Dimethyl sulfoxide. The plates were covered with self-adhesive film lids and incubated for 10 minutes at 37° C. Reactions were terminated by the addition of 75 μl Stop Solution (100 mM Tris base in acetonitrile: MilliQ water (80:20). […] The CYP activities for each test compound/positive control inhibitor at each concentration were converted to % of control activity (CA). The LC-MS/MS peak responses (CYP metabolite peak area/internal standard peak area) for each test compound or positive control inhibitor were used and the response for each sample was expressed as a percentage of an uninhibited control (DMSO incubation).

CYP17A1 and CYP19A1 = assay: Classification as Dual Inhibitor (inhibitor of both CYP17A1 and CYP19A1); settings: inhibitors of both CYP17A1 and CYP19A1

Sequence of CYP17A1 (P05093 whole entry): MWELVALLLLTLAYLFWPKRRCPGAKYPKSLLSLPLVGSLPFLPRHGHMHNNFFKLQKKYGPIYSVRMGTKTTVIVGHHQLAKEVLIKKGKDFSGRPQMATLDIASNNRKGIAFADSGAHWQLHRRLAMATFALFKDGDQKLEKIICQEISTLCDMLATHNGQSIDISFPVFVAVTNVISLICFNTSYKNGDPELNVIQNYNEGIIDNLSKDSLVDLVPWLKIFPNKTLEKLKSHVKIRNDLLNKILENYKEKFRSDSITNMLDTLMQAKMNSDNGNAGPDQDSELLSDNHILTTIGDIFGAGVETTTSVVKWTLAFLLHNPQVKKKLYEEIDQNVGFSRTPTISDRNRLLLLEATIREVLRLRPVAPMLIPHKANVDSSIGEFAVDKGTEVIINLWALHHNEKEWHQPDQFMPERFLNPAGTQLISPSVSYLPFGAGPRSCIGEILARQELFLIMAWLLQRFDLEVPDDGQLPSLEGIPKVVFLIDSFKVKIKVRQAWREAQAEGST
Sequence of CYP2D6 (P10635 whole entry, canonical isoform): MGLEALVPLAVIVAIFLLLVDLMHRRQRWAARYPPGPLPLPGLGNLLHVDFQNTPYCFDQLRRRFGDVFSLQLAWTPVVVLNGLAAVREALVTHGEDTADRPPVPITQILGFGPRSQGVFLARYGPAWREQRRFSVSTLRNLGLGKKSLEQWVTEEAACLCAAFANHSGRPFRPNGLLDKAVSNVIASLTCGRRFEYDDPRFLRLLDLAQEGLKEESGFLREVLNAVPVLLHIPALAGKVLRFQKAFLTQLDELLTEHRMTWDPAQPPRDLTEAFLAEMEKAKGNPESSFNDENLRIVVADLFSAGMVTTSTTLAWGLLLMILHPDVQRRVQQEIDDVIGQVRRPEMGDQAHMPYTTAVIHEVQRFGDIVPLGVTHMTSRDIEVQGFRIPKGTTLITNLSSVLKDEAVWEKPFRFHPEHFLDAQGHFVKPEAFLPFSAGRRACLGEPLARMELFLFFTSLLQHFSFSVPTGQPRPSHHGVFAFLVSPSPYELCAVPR
Sequence of CYP3A4 (P08684 whole entry): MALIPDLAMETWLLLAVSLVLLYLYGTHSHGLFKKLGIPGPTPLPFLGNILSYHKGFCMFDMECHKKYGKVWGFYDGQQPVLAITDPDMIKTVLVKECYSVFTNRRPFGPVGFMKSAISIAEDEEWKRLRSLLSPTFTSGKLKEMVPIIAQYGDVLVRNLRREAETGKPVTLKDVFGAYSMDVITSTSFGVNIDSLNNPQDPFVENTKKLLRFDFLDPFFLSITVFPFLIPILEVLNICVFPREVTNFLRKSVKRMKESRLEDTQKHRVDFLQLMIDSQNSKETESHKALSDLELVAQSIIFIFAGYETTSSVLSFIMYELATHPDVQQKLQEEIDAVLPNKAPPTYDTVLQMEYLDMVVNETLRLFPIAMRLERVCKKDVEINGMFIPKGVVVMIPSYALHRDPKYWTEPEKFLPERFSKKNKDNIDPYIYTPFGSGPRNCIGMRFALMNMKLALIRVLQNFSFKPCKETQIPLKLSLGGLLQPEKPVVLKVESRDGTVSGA
Sequence of CYP1A2 (P05177 whole entry, canonical isoform): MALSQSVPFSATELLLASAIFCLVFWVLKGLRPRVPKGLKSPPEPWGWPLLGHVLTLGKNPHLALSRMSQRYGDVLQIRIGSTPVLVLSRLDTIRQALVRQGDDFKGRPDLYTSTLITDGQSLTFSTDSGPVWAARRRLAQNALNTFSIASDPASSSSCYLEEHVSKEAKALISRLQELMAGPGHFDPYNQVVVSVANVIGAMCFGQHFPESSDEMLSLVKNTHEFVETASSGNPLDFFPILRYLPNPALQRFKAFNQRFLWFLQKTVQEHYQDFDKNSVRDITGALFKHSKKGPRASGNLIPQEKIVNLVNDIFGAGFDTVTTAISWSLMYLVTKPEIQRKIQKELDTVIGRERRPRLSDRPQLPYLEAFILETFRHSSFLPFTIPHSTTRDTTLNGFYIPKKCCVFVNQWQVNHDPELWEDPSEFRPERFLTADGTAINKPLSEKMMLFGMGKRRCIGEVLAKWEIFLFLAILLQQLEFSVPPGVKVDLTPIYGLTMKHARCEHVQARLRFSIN
Sequence of CYP2C19 (P33261 whole entry): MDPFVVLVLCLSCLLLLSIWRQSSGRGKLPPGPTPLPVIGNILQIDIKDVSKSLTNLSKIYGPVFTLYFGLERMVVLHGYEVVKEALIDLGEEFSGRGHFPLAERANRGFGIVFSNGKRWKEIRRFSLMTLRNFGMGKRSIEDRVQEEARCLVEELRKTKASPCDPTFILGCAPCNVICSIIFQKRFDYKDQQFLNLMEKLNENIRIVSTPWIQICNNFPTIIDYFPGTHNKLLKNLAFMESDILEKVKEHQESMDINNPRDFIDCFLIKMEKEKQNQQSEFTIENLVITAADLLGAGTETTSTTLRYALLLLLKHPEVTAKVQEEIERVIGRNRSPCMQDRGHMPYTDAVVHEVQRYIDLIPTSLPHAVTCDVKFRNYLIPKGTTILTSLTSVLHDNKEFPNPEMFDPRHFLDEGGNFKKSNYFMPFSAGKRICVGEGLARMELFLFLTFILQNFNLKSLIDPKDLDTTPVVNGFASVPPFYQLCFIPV
Sequence of CYP2C9 (P11712 whole entry): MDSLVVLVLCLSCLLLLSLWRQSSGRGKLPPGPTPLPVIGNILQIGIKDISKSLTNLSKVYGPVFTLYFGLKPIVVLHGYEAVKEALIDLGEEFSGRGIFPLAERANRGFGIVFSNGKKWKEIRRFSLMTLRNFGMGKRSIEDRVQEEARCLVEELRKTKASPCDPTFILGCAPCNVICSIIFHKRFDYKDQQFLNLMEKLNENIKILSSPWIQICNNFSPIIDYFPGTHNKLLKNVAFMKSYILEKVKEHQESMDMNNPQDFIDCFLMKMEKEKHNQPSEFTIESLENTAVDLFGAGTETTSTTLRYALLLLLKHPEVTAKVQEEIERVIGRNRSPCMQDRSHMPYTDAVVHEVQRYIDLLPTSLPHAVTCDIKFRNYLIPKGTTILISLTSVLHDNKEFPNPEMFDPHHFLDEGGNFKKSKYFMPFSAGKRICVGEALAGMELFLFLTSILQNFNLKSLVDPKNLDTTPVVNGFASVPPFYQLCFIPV
Sequence of CYP19A1 (P11511 whole entry): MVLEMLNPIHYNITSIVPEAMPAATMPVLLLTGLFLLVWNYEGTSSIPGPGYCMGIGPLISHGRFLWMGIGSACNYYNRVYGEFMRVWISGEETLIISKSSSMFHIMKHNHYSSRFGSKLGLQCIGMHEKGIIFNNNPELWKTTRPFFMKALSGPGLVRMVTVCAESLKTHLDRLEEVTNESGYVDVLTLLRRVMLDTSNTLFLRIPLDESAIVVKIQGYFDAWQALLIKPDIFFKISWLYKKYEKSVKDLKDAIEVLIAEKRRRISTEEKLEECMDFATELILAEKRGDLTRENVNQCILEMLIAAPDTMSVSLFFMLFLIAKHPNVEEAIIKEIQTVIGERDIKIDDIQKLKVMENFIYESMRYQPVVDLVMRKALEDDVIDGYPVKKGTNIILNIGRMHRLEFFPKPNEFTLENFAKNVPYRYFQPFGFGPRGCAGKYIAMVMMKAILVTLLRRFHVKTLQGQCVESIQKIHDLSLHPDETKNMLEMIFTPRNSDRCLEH

CCCC(=O)Nc1ccc(C(=O)C(C)OC(=O)c2n[nH]c3ccccc23)cc1 (racemic) [Compound 6, 1-(4-butanamidophenyl)-1-oxopropan-2-yl-1H-indazole-3-carboxylate]
IC50 (CYP17A1): > 50 µM | inhibitory potency of CYP17A1, level in words (CYP17A1; Table 2): micromolar levels | IC50 (CYP1A2): > 50 µM | IC50 (CYP2C9): 2.5 µM | IC50 (CYP2C19): 41.2 µM | IC50 (CYP2D6): > 50 µM | IC50 (CYP3A4): > 50 µM | Soluble in DMSO (Solubility in DMSO): Yes | safety profile [1]: excellent safety profiles

Cc1cccc(C(=O)OCCOc2ccc(S(N)(=O)=O)cc2)c1N [Compound 4, 2-(4-sulfamoylphenoxy) ethyl 2-amino-3-methylbenzoate]
IC50 (CYP2D6): 3.3 µM | Soluble in DMSO (Solubility in DMSO): Yes | safety profile [1]: reasonably good safety profiles | inhibition of various CYP450 isoforms (drug-drug interaction) [2]: inhibit various CYP450 isoforms

O=C1COc2cc(NC(=O)c3cc(NC(=O)c4cn[nH]c4)ccc3Cl)ccc2N1 [Compound 12, N-{4-chloro-3-[(3-oxo-3,4-dihydro-2H-1,4-benzoxazin-7-yl)carbamoyl]phenyl}-1H-pyrazole-4-carboxamide]
IC50 (CYP17A1): > 50 µM | IC50 (CYP19A1; 25 μM MFC, 10 min, 37° C.): 0.06 µM | IC50 values against CYP19A1, potency level in words (CYP19A1; Table 2): sub-micromolar inhibitory potency levels | IC50 (CYP1A2): > 50 µM | IC50 (CYP2C9): 22.5 µM | IC50 (CYP2C19): > 50 µM | IC50 (CYP2D6): > 50 µM | IC50 (CYP3A4): 18.3 µM | Soluble in DMSO (Solubility in DMSO): Yes | safety profile [1]: excellent safety profiles | Dual Inhibitor classification (CYP17A1 and CYP19A1): Dual Inhibitors
